According to PubChem BioAssay AID2060627 (Molecular Pharmacology Branch, DTP, NCI, 2025):
“And” between values parts separate entries of the source, which are not always exact repeats. Equal values may be shown once.

Tested on: 156681-154-R-J1-PDC complex spheroid viability
Test: Anticancer human tumor 156681-154-R-J1-PDC patient-derived melanoma cell line growth inhibition [CLK]
Settings: for viability, T/C: stronger effect = lower value
From the text: A high-throughput screen of multi-cell type tumor spheroids was designed to identify active combinations of […] and targeted small molecules. Complex spheroids include a stromal component modeled by human endothelial cells (HUVEC) and fibroblasts modeled by human mesenchymal stem cells (MSCs). The concentration ranges selected for each drug and investigational agent were based upon clinically achievable concentrations if the clinical Cmax of the agent was known.
Compounds. The drugs and investigational agents: cirtuvivint (SM08502; NSC835563), CC-671 (NSC850746), vemurafenib (NSC761431), tapotoclax (NSC804041), sotorasib (NSC818433), adagrasib (NSC831453), MRTX-1133 (NSC836407), BAY2416964 (NSC825713), copanlisib (NSC816437), inavolisib (NSC800729), abemaciclib (NSC768073), osimertinib (NSC779217), entinostat (NSC756642), eltanexor (KPT-8602, NSC794443), venetoclax (NSC766270), ceralasertib (NSC777638), bortezomib (NSC756655), olaparib (NSC753686), talazoparib (NSC767125), alisertib (NSC759677), peposertib (NSC802822), gemcitabine (NSC613327), 5-fluorouracil (NSC19893), SN-38 (NSC673596), oxaliplatin (NSC266046), paclitaxel (NSC125973), and doxorubicin (NSC123127), were obtained from the National Cancer Institute (NCI) Developmental Therapeutics Program Chemical Repository. The FDA-approved anticancer drug set is available from the Developmental Therapeutics Program at https://dtp.cancer.gov/organization/dscb/obtaining/available plates.htm. […] The stock solutions were prepared in dimethyl sulfoxide (DMSO, Sigma-Aldrich, St. Louis, MO, cat. D2650), except for the platinum complexes which were prepared in saline (Quality Biological, Gaithersburg, MD, cat. 114-055-101), at 800-fold the tested concentration and stored at -70 degrees C prior to their use. All drugs and investigational agents were tested over a range starting from a high concentration at or near the clinical Cmax and decreasing in half-log increments. If the clinical Cmax for an agent had not been determined, the highest concentration tested was 10 microM.
Cell Culture. All cells were maintained in an incubator at 37 degrees C and 5% CO2 with 95% humidity. The PDC lines were cultured according to standard operating procedures established by the NCI PDMR. Briefly, all PDCs were thawed and cultured in Matrigel-coated flasks prepared with a working solution of 1X Ham's F-12 nutrient mix, without supplementation (Invitrogen, Waltham, MA, cat. 11765054), 100 U/mL penicillin-streptomycin (Invitrogen, cat. 15140122), and 2.5% Matrigel (Corning Inc., Corning, NY, cat. 354248) for the first three passages. The 947758-054-R-J2-PDC line was cultured in 6B/Colon 1A media, which includes advanced DMEM/F-12 (Thermo Fisher Scientific, cat. 12634028), 10 mM HEPES (Thermo Fisher Scientific, cat. 15630080), 1X GlutaMAX supplement (Thermo Fisher Scientific, cat. 35050061), 0.1 mg/mL primocin (InvivoGen, cat. ant-pm-2), 10% defined fetal bovine serum, heat inactivated (HyClone Laboratories Inc., cat. SH30070.03HI), 1.25 mM N-Acetyl-L-cysteine (Sigma-Aldrich, cat. A9165), 10 mM nicotinamide (Sigma-Aldrich, cat. N0636), 1X B-27 supplement (Thermo Fisher Scientific, cat. 17504044), 1X N-2 supplement (Thermo Fisher Scientific, cat. 17502048), and 10 microM Y-27632 dihydrochloride (Tocris Bioscience, cat. 1254). The 876862-298-R-J1-PDC was cultured in 6E media, which includes all 6B/Colon 1A media components plus 50% L-WRN conditioned media (ATCC, cat. CRL-3276), 50 ng/mL recombinant human EGF recombinant protein (hEGF; Thermo Fisher Scientific, cat. PHG0311), 10 ng/mL recombinant human fibroblast growth factor 10 (hGFG-10; PeproTech, cat. 100-26), 1 ng/mL recombinant human fibroblast growth factor 2 (hFGF-2; PeproTech, cat. 100-18B), and 1 µM prostaglandin E2 (PGE2; Tocris, cat. 2296). The 227483-062-R1-J1-PDC line was cultured in Panc media, containing all 6E components except hFGF-2, with the addition of 500 nM SB-431542 (Selleckchem, cat. S1067) and 10 nM gastrin (Tocris, cat. 3006). […]

[1] = curve of first compound, second compound 0.0316 µM
[2] = curve of first compound, second compound 0.1 µM
[3] = curve of first compound, second compound 0.316 µM
[4] = curve of first compound, second compound 1 µM
[5] = curve of first compound, second compound 3.16 µM
[6] = curve of first compound, second compound 10 µM
[7] = second compound 0.0316 µM, first compound 0.0316 µM
[8] = second compound 0.0316 µM, first compound 0.1 µM
[9] = second compound 0.0316 µM, first compound 0.316 µM
[10] = second compound 0.0316 µM, first compound 1 µM
[11] = second compound 0.0316 µM, first compound 3.16 µM
[12] = second compound 0.0316 µM, first compound 10 µM
[13] = second compound 0.1 µM, first compound 0.0316 µM
[14] = second compound 0.1 µM, first compound 0.1 µM
[15] = second compound 0.1 µM, first compound 0.316 µM
[16] = second compound 0.1 µM, first compound 1 µM
[17] = second compound 0.1 µM, first compound 3.16 µM
[18] = second compound 0.1 µM, first compound 10 µM
[19] = second compound 0.316 µM, first compound 0.0316 µM
[20] = second compound 0.316 µM, first compound 0.1 µM
[21] = second compound 0.316 µM, first compound 0.316 µM
[22] = second compound 0.316 µM, first compound 1 µM
[23] = second compound 0.316 µM, first compound 3.16 µM
[24] = second compound 0.316 µM, first compound 10 µM
[25] = second compound 1 µM, first compound 0.0316 µM
[26] = second compound 1 µM, first compound 0.1 µM
[27] = second compound 1 µM, first compound 0.316 µM
[28] = second compound 1 µM, first compound 1 µM
[29] = second compound 1 µM, first compound 3.16 µM
[30] = second compound 1 µM, first compound 10 µM
[31] = second compound 3.16 µM, first compound 0.0316 µM
[32] = second compound 3.16 µM, first compound 0.1 µM
[33] = second compound 3.16 µM, first compound 0.316 µM
[34] = second compound 3.16 µM, first compound 1 µM
[35] = second compound 3.16 µM, first compound 3.16 µM
[36] = second compound 3.16 µM, first compound 10 µM
[37] = second compound 10 µM, first compound 0.0316 µM
[38] = second compound 10 µM, first compound 0.1 µM
[39] = second compound 10 µM, first compound 0.316 µM
[40] = second compound 10 µM, first compound 1 µM
[41] = second compound 10 µM, first compound 3.16 µM
[42] = second compound 10 µM, first compound 10 µM
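Also: spheroids exposed to the agents for seven days.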
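For viability, T/C in this document: 100% = DMSO vehicle control viability.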

Compound `Nc1ccn(C2OC(CO)C(O)C2(F)F)c(=O)n1` (stereo not drawn) + CNC(=O)c1ccc(Nc2nc(OC3CCCC3)c3c(-c4ccc5nc(C)oc5c4)c[nH]c3n2)c(OC)c1 has an IC50 [1] of less than 31.6 nM, an IC50 [2] of less than 31.6 nM and an IC50 [3] of less than 31.6 nM. For the same compound, the IC50 [4] was less than 31.6 nM, the IC50 [5] was less than 31.6 nM and the IC50 [6] was less than 31.6 nM. It also gave a viability, T/C [7] of 12.3%, a viability, T/C [8] of 15.9% and a viability, T/C [9] of 13.6%. The viability, T/C [10] was 17.9%, the viability, T/C [11] was 15.6% and the viability, T/C [12] was 15.2%. It also gave a viability, T/C [13] of 13.2%, a viability, T/C [14] of 13.4% and a viability, T/C [15] of 14.2%. The viability, T/C [16] was 16.1%, the viability, T/C [17] was 15.7% and the viability, T/C [18] was 14%. For the same compound, the viability, T/C [19] was 15.7%, the viability, T/C [20] was 11.9% and the viability, T/C [21] was 19%. The viability, T/C [22] was 13%, the viability, T/C [23] was 12.2% and the viability, T/C [24] was 12.5%. For the same compound, the viability, T/C [25] was 20.5%, the viability, T/C [26] was 11.2% and the viability, T/C [27] was 7.8%. It also gave a viability, T/C [28] of 9.13%, a viability, T/C [29] of 12.3% and a viability, T/C [30] of 10.8%. For the same compound, the viability, T/C [31] was 25.3%, the viability, T/C [32] was 12.3% and the viability, T/C [33] was 9.98%. For the same compound, the viability, T/C [34] was 7.12%, the viability, T/C [35] was 11.4% and the viability, T/C [36] was 7.7%. The viability, T/C [37] was 28.5%, the viability, T/C [38] was 12.4% and the viability, T/C [39] was 9.66%. It also gave a viability, T/C [40] of 9.99%, a viability, T/C [41] of 12.1% and a viability, T/C [42] of 7.49%.

With `O=C(c1cc(Cc2n[nH]c(=O)c3ccccc23)ccc1F)N1CCN(C(=O)C2CC2)CC1` + CN1CCN(c2cc(C(=O)Nc3cc4cc(-c5cnn(C)c5)ccc4cn3)ccn2)CC1 the IC50 [1] was greater than 10000 nM, the IC50 [2] was greater than 10000 nM and the IC50 [3] was less than 31.6 nM. The IC50 [4] was less than 31.6 nM, the IC50 [5] was less than 31.6 nM and the IC50 [6] was less than 31.6 nM. The viability, T/C [7] was 104%, the viability, T/C [8] was 110% and the viability, T/C [9] was 89.1%. It also gave a viability, T/C [10] of 76.5%, a viability, T/C [11] of 75.3% and a viability, T/C [12] of 64.6%. It also gave a viability, T/C [13] of 87.9%, a viability, T/C [14] of 74.5% and a viability, T/C [15] of 70.3%. The viability, T/C [16] was 74.4%, the viability, T/C [17] was 76.4% and the viability, T/C [18] was 55.7%. It also gave a viability, T/C [19] of 19.1%, a viability, T/C [20] of 19.4% and a viability, T/C [21] of 20.1%. The viability, T/C [22] was 18%, the viability, T/C [23] was 17.7% and the viability, T/C [24] was 21.2%. For the same compound, the viability, T/C [25] was 0.14%, the viability, T/C [26] was 1.63% and the viability, T/C [27] was 0.21%. The viability, T/C [28] was 0.5%, the viability, T/C [29] was 0.68% and the viability, T/C [30] was 1.61%. The viability, T/C [31] was 0.08%, the viability, T/C [32] was 1.74% and the viability, T/C [33] was 1.83%. For the same compound, the viability, T/C [34] was 0.06%, the viability, T/C [35] was 0.24% and the viability, T/C [36] was 0.71%. The viability, T/C [37] was 0.1%, the viability, T/C [38] was 2.76% and the viability, T/C [39] was 1.36%. The viability, T/C [40] was 2.17%, the viability, T/C [41] was 1.6% and the viability, T/C [42] was 0.56%.

`CC1(C)CCC(CN2CCN(c3ccc(C(=O)NS(=O)(=O)c4ccc(NCC5CCOCC5)c([N+](=O)[O-])c4)c(Oc4cnc5[nH]ccc5c4)c3)CC2)=C(c2ccc(Cl)cc2)C1` + CN1CCN(c2cc(C(=O)Nc3cc4cc(-c5cnn(C)c5)ccc4cn3)ccn2)CC1 was tested, and the IC50 [1] was 4990 nM, the IC50 [2] was 4370 nM and the IC50 [3] was less than 31.6 nM. For the same compound, the IC50 [4] was less than 31.6 nM, the IC50 [5] was less than 31.6 nM and the IC50 [6] was less than 31.6 nM. The viability, T/C [7] was 99.7%, the viability, T/C [8] was 116% and the viability, T/C [9] was 90.8%. It also gave a viability, T/C [10] of 103%, a viability, T/C [11] of 81.6% and a viability, T/C [12] of 1.68%. For the same compound, the viability, T/C [13] was 97.8%, the viability, T/C [14] was 83.3% and the viability, T/C [15] was 86%. The viability, T/C [16] was 88.8%, the viability, T/C [17] was 69.2% and the viability, T/C [18] was 0.79%. For the same compound, the viability, T/C [19] was 18.2%, the viability, T/C [20] was 19.7% and the viability, T/C [21] was 24.4%. The viability, T/C [22] was 17.9%, the viability, T/C [23] was 8.72% and the viability, T/C [24] was 0.28%. For the same compound, the viability, T/C [25] was 0.22%, the viability, T/C [26] was 0.91% and the viability, T/C [27] was 0.19%. For the same compound, the viability, T/C [28] was 0.18%, the viability, T/C [29] was 2.05% and the viability, T/C [30] was 0.07%. The viability, T/C [31] was 2.04%, the viability, T/C [32] was 0.47% and the viability, T/C [33] was 0.27%. The viability, T/C [34] was 0.09%, the viability, T/C [35] was 3.38% and the viability, T/C [36] was 0.4%. The viability, T/C [37] was 0.1%, the viability, T/C [38] was 3.06% and the viability, T/C [39] was 2.9%. It also gave a viability, T/C [40] of 0.17%, a viability, T/C [41] of 0.91% and a viability, T/C [42] of 0.56%.

With `CC(CO)NC(=O)c1cc(-c2ccc(Cl)cc2)nn(-c2cnn(C)c2)c1=O` (stereo not drawn) the viability, T/C (compound 0.0316 µM) was 97.5% and 93.1%, the viability, T/C (compound 0.1 µM) was 73.8% and 82.1% and the viability, T/C (compound 0.316 µM) was 100% and 94.2%. The viability, T/C (compound 1 µM) was 94.3% and 99.3%, the viability, T/C (compound 3.16 µM) was 87.3% and 77.8% and the viability, T/C (compound 10 µM) was 51.8% and 58.1%. It also gave an IC50 (curve of compound) greater than 10000 nM.
